According to PubChem BioAssay (NCI):
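Cultured in 96-well plates, cells were exposed to test compound for 48 hours across five concentrations. TGI: total growth inhibition.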

Key:
Test in all cases: NCI tumour cell line growth inhibition, 48 h
SF-539 CNS = test system: SF-539 CNS
MALME-3M melanoma = test system: MALME-3M melanoma
IGROV1 ovarian = test system: IGROV1 ovarian
MCF7 breast = test system: MCF7 breast
NCI-H460 lung = test system: NCI-H460 lung
SN12C renal = test system: SN12C renal
UO-31 renal = test system: UO-31 renal
SNB-19 CNS = test system: SNB-19 CNS
HCT-116 colon = test system: HCT-116 colon
SR leukemia = test system: SR leukemia
HT29 colon = test system: HT29 colon
MDA-MB-435 = test system: MDA-MB-435
SW-620 colon = test system: SW-620 colon
COLO 205 colon = test system: COLO 205 colon
RXF 393 renal = test system: RXF 393 renal
SK-OV-3 ovarian = test system: SK-OV-3 ovarian
ACHN renal = test system: ACHN renal
K-562 leukemia = test system: K-562 leukemia
OVCAR-5 ovarian = test system: OVCAR-5 ovarian
786-0 renal = test system: 786-0 renal
DU-145 prostate = test system: DU-145 prostate
RPMI-8226 leukemia = test system: RPMI-8226 leukemia
PC-3 prostate = test system: PC-3 prostate
NCI/ADR-RES ovarian = test system: NCI/ADR-RES ovarian
NCI-H226 lung = test system: NCI-H226 lung
KM12 colon = test system: KM12 colon
NCI-H522 lung = test system: NCI-H522 lung
U251 CNS = test system: U251 CNS
BT-549 breast = test system: BT-549 breast
MDA-MB-231 breast = test system: MDA-MB-231 breast
HL-60(TB) leukemia = test system: HL-60(TB) leukemia
UACC-257 melanoma = test system: UACC-257 melanoma
SF-268 CNS = test system: SF-268 CNS
NCI-H23 lung = test system: NCI-H23 lung
MOLT-4 leukemia = test system: MOLT-4 leukemia
HS 578T breast = test system: HS 578T breast
UACC-62 melanoma = test system: UACC-62 melanoma
MDA-N = test system: MDA-N
LOX IMVI melanoma = test system: LOX IMVI melanoma
OVCAR-3 ovarian = test system: OVCAR-3 ovarian
SK-MEL-28 melanoma = test system: SK-MEL-28 melanoma
M14 melanoma = test system: M14 melanoma
SNB-75 CNS = test system: SNB-75 CNS
SF-295 CNS = test system: SF-295 CNS
HOP-62 NSCLC = test system: HOP-62 NSCLC
TK-10 renal = test system: TK-10 renal
HCC-2998 colon = test system: HCC-2998 colon
SK-MEL-2 melanoma = test system: SK-MEL-2 melanoma
CAKI-1 renal = test system: CAKI-1 renal
SK-MEL-5 melanoma = test system: SK-MEL-5 melanoma
HOP-92 NSCLC = test system: HOP-92 NSCLC
CCRF-CEM leukemia = test system: CCRF-CEM leukemia
A498 renal = test system: A498 renal
EKVX NSCLC = test system: EKVX NSCLC
OVCAR-4 ovarian = test system: OVCAR-4 ovarian
A549 NSCLC = test system: A549 NSCLC
OVCAR-8 ovarian = test system: OVCAR-8 ovarian
T-47D breast = test system: T-47D breast
HCT-15 colon = test system: HCT-15 colon

Measured: TGI

C=C(Cl)C(=C)CCC(Cl)C(C)(C)Cl (stereo unspecified)
> 100 µM: SF-539 CNS | MALME-3M melanoma | IGROV1 ovarian | MCF7 breast | NCI-H460 lung | SN12C renal | UO-31 renal | SNB-19 CNS | HCT-116 colon | SR leukemia | HT29 colon | MDA-MB-435 | SW-620 colon | COLO 205 colon | RXF 393 renal | SK-OV-3 ovarian | ACHN renal | K-562 leukemia | OVCAR-5 ovarian | 786-0 renal | DU-145 prostate | RPMI-8226 leukemia | PC-3 prostate | NCI/ADR-RES ovarian | NCI-H226 lung | KM12 colon | NCI-H522 lung | U251 CNS | BT-549 breast | MDA-MB-231 breast | HL-60(TB) leukemia | UACC-257 melanoma | SF-268 CNS | NCI-H23 lung | MOLT-4 leukemia | HS 578T breast | UACC-62 melanoma | MDA-N | LOX IMVI melanoma | OVCAR-3 ovarian | SK-MEL-28 melanoma | M14 melanoma | SNB-75 CNS | SF-295 CNS | HOP-62 NSCLC | TK-10 renal | HCC-2998 colon | SK-MEL-2 melanoma | CAKI-1 renal | SK-MEL-5 melanoma | HOP-92 NSCLC | CCRF-CEM leukemia | A498 renal | EKVX NSCLC | OVCAR-4 ovarian | A549 NSCLC

CCCCN=C(OC1C=CCCC1)SC (stereo unspecified)
> 100 µM: MALME-3M melanoma | IGROV1 ovarian | MCF7 breast | SN12C renal | UO-31 renal | SNB-19 CNS | HCT-116 colon | SR leukemia | HT29 colon | MDA-MB-435 | SW-620 colon | COLO 205 colon | SK-OV-3 ovarian | ACHN renal | K-562 leukemia | OVCAR-5 ovarian | 786-0 renal | DU-145 prostate | RPMI-8226 leukemia | OVCAR-8 ovarian | PC-3 prostate | NCI/ADR-RES ovarian | NCI-H226 lung | T-47D breast | U251 CNS | BT-549 breast | MDA-MB-231 breast | HL-60(TB) leukemia | UACC-257 melanoma | SF-268 CNS | NCI-H23 lung | MOLT-4 leukemia | UACC-62 melanoma | MDA-N | OVCAR-3 ovarian | SK-MEL-28 melanoma | M14 melanoma | HCT-15 colon | SNB-75 CNS | SF-295 CNS | HOP-62 NSCLC | TK-10 renal | HCC-2998 colon | SK-MEL-5 melanoma | HOP-92 NSCLC | CCRF-CEM leukemia | A498 renal | EKVX NSCLC | OVCAR-4 ovarian | A549 NSCLC
